Measured values published in PMC13415951 (Journal of Experimental Botany, 2026).
Where a chain is given by its changes, count along the chain named.

Columns and labels:
BdUGT5g03300 = biological target: T1, BdUGT5g03300 (Brachypodium distachyon, UniProt I1IW79); test: biochemical
T1 sequence (I1IW79 1-469): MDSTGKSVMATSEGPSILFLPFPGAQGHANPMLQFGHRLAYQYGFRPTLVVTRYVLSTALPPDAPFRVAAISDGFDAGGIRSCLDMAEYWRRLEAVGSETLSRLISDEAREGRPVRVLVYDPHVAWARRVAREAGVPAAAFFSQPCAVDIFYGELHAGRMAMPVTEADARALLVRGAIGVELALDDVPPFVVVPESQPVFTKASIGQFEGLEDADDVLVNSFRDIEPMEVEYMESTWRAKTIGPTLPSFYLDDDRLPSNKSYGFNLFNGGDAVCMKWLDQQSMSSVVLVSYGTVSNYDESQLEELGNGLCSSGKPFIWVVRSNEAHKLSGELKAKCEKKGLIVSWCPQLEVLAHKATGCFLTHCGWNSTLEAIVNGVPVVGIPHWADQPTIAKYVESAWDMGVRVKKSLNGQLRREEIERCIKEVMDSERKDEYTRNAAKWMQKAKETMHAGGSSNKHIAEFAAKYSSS

OsUGT79 = biological target: T2, OsUGT79 (Oryza sativa subsp. japonica, UniProt Q7XT97); test: biochemical; format: biochemical
T2 construct: made in house; host or cells: E. coli
T2 sequence (Q7XT97 1-466): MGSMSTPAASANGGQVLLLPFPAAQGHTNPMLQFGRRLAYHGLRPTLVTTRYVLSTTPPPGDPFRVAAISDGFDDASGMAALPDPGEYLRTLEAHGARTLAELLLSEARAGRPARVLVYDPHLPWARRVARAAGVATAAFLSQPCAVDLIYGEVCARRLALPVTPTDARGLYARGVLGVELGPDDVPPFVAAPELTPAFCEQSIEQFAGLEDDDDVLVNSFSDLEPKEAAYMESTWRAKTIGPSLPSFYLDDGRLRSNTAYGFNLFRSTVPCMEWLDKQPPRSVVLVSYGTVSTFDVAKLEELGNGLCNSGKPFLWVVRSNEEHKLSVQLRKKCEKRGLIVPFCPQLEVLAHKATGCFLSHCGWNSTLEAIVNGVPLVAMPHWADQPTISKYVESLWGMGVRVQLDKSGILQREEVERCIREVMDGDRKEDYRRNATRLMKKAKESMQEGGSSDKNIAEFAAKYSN

OsUGT79 Q202A = biological target: T3, OsUGT79 Q202A (Oryza sativa subsp. japonica, UniProt Q7XT97, Q202A); format: biochemical
T3 sequence (Q7XT97 1-466 Q202A): T2 sequence (Q7XT97 1-466) with Q202A

[1] = tested on: wheat cultivar Apogee seedlings; parameters: species or system Triticum aestivum; settings: in vivo
[2] = tested on: B. distachyon line OE-10R14; parameters: species or system Brachypodium distachyon; settings: in vivo
[3] = read-out: Glucosylation rate of DON, percentage of the control

CC1(C)CCC[C@]2(C)[C@@H]3[C@H]1[C@@H](O)[C@@]2(C)C[C@H]3O [CUL, culmorin]
Specific activity (glucoside formation) (BdUGT5g03300): ≈ 1×10^−3 nmol min^−1 mg^−1 | Specific activity with CUL, fold below the value obtained with DON (BdUGT5g03300): ~1000 fold | Glucosylation rate of DON, percentage of the control (BdUGT5g03300; 25 µM): 0.84±0.03% | remaining activity at 25 µM (BdUGT5g03300; [3]): < 1% | remaining activity at 125 µM (BdUGT5g03300; [3]): 0.19 ± 0.01% | CUL glucosylation rate compared with DON (OsUGT79): 1–2% | Specific activity (glucoside formation) (OsUGT79): 1.85 ± 0.05 nmol/min/mg | remaining activity at 25 µM (OsUGT79; [3]): 64 ± 3% | remaining activity at 125 µM (OsUGT79; [3]): 33 ± 4% | Specific activity (glucoside formation) (OsUGT79 Q202A): 2.23 ± 0.08 nmol/min/mg | Effect of CUL applied together with DON on root length [1]: significantly increased the degree of reduction of root length | Effect on primary and total root length [1]: did not cause a significant change | Effect of addition of CUL to 50 mg l^−1 DON on root length [2]: severe breakdown of resistance to DON
